Activity calls are given as the source filed them.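 The calls were made as follows: active = caspase luminescence falls with dose and the half-maximal concentration AC50 from the fitted curve is at or below a set limit; inconclusive = flat fit at 30 to 70% signal loss, or invalid fit; inactive = AC50 above the limit, or signal rises instead.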
Test system: INS-1E cytokine-induced caspase-3/7, Caspase-Glo luminescence, 48 h
Assay: suppression of cytokine-driven beta-cell apoptosis – INS-1E rat cells, luminescence, orthogonal assay for beta-cell apoptosis protection project, dose response (AID 463206)

| SMILES | AC50 |
| --- | --- |
| CNC(=S)N(Cc1cccs1)Cc1cc2cc(OC)c(OC)cc2[nH]c1=O | > 26 µM (inactive) |
| C#CCOCCOCCOCCNc1nc(N2CCN(C(=O)CCCCCCCCCCNC(=O)[C@H](CCCCN)n3cc(C)nn3)CC2)nc(N2CCN(C(=O)CCCCCCCCCCNC(=O)[C@@H]([C@H](C)CC)n3cc(CCCCCN)nn3)CC2)n1 | > 26 µM (inactive) |
| Cc1ccc(C(=O)c2c(C)oc3c2C(=O)C(=O)c2ccccc2-3)cc1 | > 26 µM (inactive) |
| CC(=O)Nc1sc2c(c1-c1nc3ccccc3s1)CN(C(C)C)CC2 | > 26 µM (inactive) |
| CCc1ccc(-c2cc(C(F)(F)F)n3nc(C(=O)Nc4cnn(Cc5ccc(C)cc5)c4)cc3n2)s1 | > 26 µM (inactive) |
| Cc1nn(-c2ccccc2)c(C)c1NC(=O)COc1ccc(Br)cc1Cl | > 26 µM (inactive) |
| COc1cccc(/C=N/NC(=O)c2cc(-c3ccccn3)nc3ccccc23)c1O | > 26 µM (inactive) |
| C/C(=N\NC(=O)c1ccccc1OCc1ccc(F)cc1)c1ccccn1 | > 26 µM (inactive) |
| CN1/C(=C\C(=S)NC(=O)c2ccc([N+](=O)[O-])cc2)C(C)(C)c2ccccc21 | > 26 µM (inactive) |
| Cc1sc2ncnc(NCc3cccs3)c2c1C | > 26 µM (inactive) |
| COc1cnc(-c2ccccn2)nc1NC(C)C | > 12 µM (inactive) |
| C/C(N)=C(/C#N)C(=O)COC(=O)c1cc(-c2ccc(C)cc2)nc2ccccc12 | > 26 µM (inactive) |
| c1ccc(-c2csc3ncnc(NCC4COc5ccccc5O4)c23)cc1 (configuration not stated) | > 26 µM (inactive) |
| Cc1ccccc1-[n+]1c(-c2ccccc2)cc(-c2ccccc2)cc1-c1ccccc1 | > 26 µM (inactive) |
| CCOc1cc(/C=C2\COc3ccccc3C2=O)cc(Br)c1OCC(=O)N(C)C | > 26 µM (inactive) |
| C/C(Cn1nnc([N+](=O)[O-])n1)=N\NC(=O)c1ccccc1Cl | > 26 µM (inactive) |
| Cc1nc2c(-c3ccc(Cl)cc3)c(C)[nH]n2c(=O)c1Cc1ccccc1 | > 26 µM (inactive) |
| Cc1sc2ncnc(N3CCN(S(=O)(=O)c4ccc(C(C)(C)C)cc4)CC3)c2c1C | > 26 µM (inactive) |
| CCN1/C(=C/C=C/c2sc3ccccc3[n+]2CC)Sc2ccccc21 | > 26 µM (inactive) |

| SMILES | AC50 |
| --- | --- |
| COc1ccc(/C=N/Nc2cc(C)nc(-n3nc(C)cc3C)n2)cc1 | > 26 µM (inactive) |
| O=C(CSc1nnc(Cn2nnc3ccccc32)o1)N(Cc1ccc(Cl)cc1)c1ccccc1 | > 26 µM (inactive) |
| c1ccc(-c2nnc(-c3ccccn3)nc2NC2CCCCC2)cc1 | > 26 µM (inactive) |
| Cc1ccc(C(=O)C[n+]2cc(-c3ccccc3)n3c2CCCCC3)cc1 | > 26 µM (inactive) |
| O=C(Nc1nc(-c2ccccn2)cs1)c1ccc(Br)s1 | > 26 µM (inactive) |
| O=C(NC(=S)NNC(=O)c1cnccn1)c1ccc(F)cc1 | > 26 µM (inactive) |
| O=C(N/N=C/c1c(O)ccc2ccccc12)c1ccc(Br)o1 | > 26 µM (inactive) |
| O=[N+]([O-])c1cccc2c(N3CCCC3)ccnc12 | > 26 µM (inactive) |
| CCOc1ccc(S(=O)(=O)NCc2ccncc2)cc1 | > 26 µM (inactive) |
| CCC(C)(C)c1ccc(OCCCC[n+]2cccc(C)c2C)c(C(C)(C)CC)c1 | > 26 µM (inactive) |
| Cn1nccc1C(=O)N/N=C/c1c(O)ccc2ccccc12 | > 26 µM (inactive) |
| NS(=O)(=O)c1ccc(N/N=C/c2cn(-c3ccccc3)nc2-c2cccs2)c([N+](=O)[O-])c1 | 19 µM |
| Cc1cc(-n2c(SCC(=O)Nc3ccc(F)c(F)c3)nc3n[nH]c(C)c3c2=N)ccc1Cl | > 26 µM (inactive) |
| Cc1ccc(O)c(NC(=S)NC(=O)c2ccc(-c3ccc(Cl)cc3)o2)c1 | > 26 µM (inactive) |
| N/C(=N\OC(=O)c1ccc(Cl)cc1Cl)c1ccccn1 | > 26 µM (inactive) |
| C/C(=N\NC(=O)c1ccccc1Cl)c1ccccn1 | > 26 µM (inactive) |
| Brc1ccc(N/N=C(/N=Nc2nn[nH]n2)c2ccccc2)cc1 | > 26 µM (inactive) |
| CCCCn1cnc2c(c(-c3ccccc3)c(-c3ccccc3)n2Cc2ccco2)c1=N | > 26 µM (inactive) |

Reference: PubChem BioAssay AID463206 (Broad Institute, 2010)
